Measurements taken from the NIST ThermoML archive (doi:10.1021/je9000679).

Conditions: for surface tension liquid-gas: Maximal bubble pressure; for mass density: 101.33 kPa, Liquid

CCCCCC[n+]1ccccc1.[O]=[Re](=[O])(=[O])[O-] [1-hexylpyridinium perrhenate]
Conditions | mass density [kg/m3] | surface tension liquid-gas [mN/m]
293.15 K | 1794.6 | 34.4
298.15 K | 1787 | 34
303.15 K | 1779 | 33.6
308.15 K | 1771.3 | 33.2
313.15 K | 1765 | 33
318.15 K | 1759 | 32.6
323.15 K | 1751.4 | 32.3
328.15 K | 1743.9 | 32
333.15 K | 1738 | 31.8
338.15 K | 1732.3 | 31.5
343.15 K | 1726.9 | 31.1
